Counter-ions that a name gives are not always drawn.
Legend:
[1] = system: polyclonal antibodies to vincristine, bleed G1M1; experiment: Indirect competitive microtiter plate immunoassay (ELISA), polyclonal antiserum bleed G1M1; type: binding, mouse; settings: relative to vincristine, vincristine [5]-BSA coated plates
Procedure: (§1) The ELISA method for measuring vincristine concentrations was performed in polystyrene microtiter plates (Nunc MaxiSorp F8 Immunomodules) optimized for protein binding and containing 96 wells per plate. Each well was coated with vincristine [5]-BSA conjugate (prepared as in Example 5) by adding 300 μl, of vincristine [5]-BSA conjugate at 10 μg/mL in 0.05M sodium carbonate, pH 9.6, and incubating for three hours at room temperature. The wells were washed with 0.05M sodium carbonate, pH 9.6 and then were blocked with 375 μL of 5% sucrose, 0.2% sodium caseinate solution for 30 minutes at room temperature. After removal of the blocking solution the plates were dried at 37° C. overnight.
(§2) This procedure is to find the dilution of antibody or anti-serum to be tested for displacement as in Example 9. […] Following the incubation for color development, 50 μL of stop solution (1.5% sodium fluoride in diH2O) was added to each well to stop the color development and after 10 seconds of shaking the absorbance was determined at 650 nm (Molecular Devices Plate Reader). The amount of antibody in a well was proportional to the absorbance measured and was expressed as the dilution (titer) resulting in an absorbance of 1.5. Titers were determined by graphing antibody dilution of the antibody measured (x-axis) vs. absorbance 650 nm (y-axis) and interpolating the titer at an absorbance of 1.5. […]

[2] = system: polyclonal antibodies to vincristine, bleed G1M3; experiment: Indirect competitive microtiter plate immunoassay (ELISA), polyclonal antiserum bleed G1M3; type: binding, mouse; settings: relative to vincristine, vincristine [5]-BSA coated plates
Procedure: as §1, §2

[3] = system: polyclonal antibodies to vincristine, bleed G2M1; experiment: Indirect competitive microtiter plate immunoassay (ELISA), polyclonal antiserum bleed G2M1; type: binding, mouse; settings: relative to vincristine, vincristine [5]-BSA coated plates
Procedure: as §1, §2

[4] = system: polyclonal antibodies to vincristine, bleed G2M5; experiment: Indirect competitive microtiter plate immunoassay (ELISA), polyclonal antiserum bleed G2M5; type: binding, mouse; settings: relative to vincristine, vincristine [5]-BSA coated plates
Procedure: as §1, §2

[5] = system: polyclonal antibodies to vincristine, bleed G1M4; experiment: Indirect competitive microtiter plate immunoassay (ELISA), polyclonal antiserum bleed G1M4; type: binding, mouse; settings: relative to vincristine, vincristine [5]-BSA coated plates
Procedure: as §1, §2

[6] = system: monoclonal antibody to vincristine 1D12.10; experiment: Indirect competitive microtiter plate immunoassay (ELISA), monoclonal antibody 1D12.10; type: binding, mouse; settings: relative to vincristine, vincristine [5]-BSA coated plates
Procedure: as §1
(§3) This procedure is to find the dilution of antibody or anti-serum to be tested for displacement as in Example 9. The ELISA method for screening vincristine antibodies (produced in Example 6) was performed with the microtiter plates that were sensitized with vincristine-BSA conjugate prepared in Example 7. The antibody screening assay was performed by diluting the murine serum from test bleeds (as in Example 6a) containing polyclonal vincristine antibodies to 1:2,000, 1:6,000, 1:18,000 and 1:54,000 (volume/volume) in phosphate buffered saline containing 0.1% BSA and 0.01% thimerosal. […] (volume/volume) in phosphate buffered saline containing 0.1% BSA and 0.01% thimerosal. To each well of vincristine-BSA sensitized wells (prepared in Example 7)50 μL phosphate buffered saline containing 0.1% BSA and 0.01% thimerosal and 50 μL of diluted antibody were added and incubated for 10 minutes at room temperature with shaking. During this incubation antibody binds to the vincristine-BSA conjugate passively absorbed in the wells (Example 7). The wells of the plates were washed three times with 0.02 M TRIS, 0.9% NaCl, 0.5% Tween-80 and 0.001% thimerosal, pH 7.8 to remove any unbound antibody. […] Following the incubation for color development, 50 μL of stop solution (1.5% sodium fluoride in diH2O) was added to each well to stop the color development and after 10 seconds of shaking the absorbance was determined at 650 nm (Molecular Devices Plate Reader). The amount of antibody in a well was proportional to the absorbance measured and was expressed as the dilution (titer) resulting in an absorbance of 1.5. Titers were determined by graphing antibody dilution of the antibody measured (x-axis) vs. absorbance 650 nm (y-axis) and interpolating the titer at an absorbance of 1.5. The titer which produced absorbance of 1.5 determined the concentration (dilution) of antibody used in the indirect competitive microtiter plate assay described in Example 9. […]

[7] = system: monoclonal antibody to vincristine 8B6.23.23; experiment: Indirect competitive microtiter plate immunoassay (ELISA), monoclonal antibody 8B6.23.23; type: binding, mouse; settings: relative to vincristine, vincristine [5]-BSA coated plates
Procedure: as §1, §3

[8] = system: antibodies to vincristine; experiment: Indirect competitive microtiter plate immunoassay (ELISA), pool of antibodies to vincristine; type: binding, mouse; settings: for reactivity of the antibodies of this invention (in words): summary of Tables I and II
Procedure: as §1
This procedure is to find the dilution of antibody or anti-serum to be tested for displacement as in Example 9. The ELISA method for screening vincristine antibodies (produced in Example 6) was performed with the microtiter plates that were sensitized with vincristine-BSA conjugate prepared in Example 7. The antibody screening assay was performed by diluting the murine serum from test bleeds (as in Example 6a) containing polyclonal vincristine antibodies to 1:2,000, 1:6,000, 1:18,000 and 1:54,000 (volume/volume) in phosphate buffered saline containing 0.1% BSA and 0.01% thimerosal. […] (volume/volume) in phosphate buffered saline containing 0.1% BSA and 0.01% thimerosal. To each well of vincristine-BSA sensitized wells (prepared in Example 7)50 μL phosphate buffered saline containing 0.1% BSA and 0.01% thimerosal and 50 μL of diluted antibody were added and incubated for 10 minutes at room temperature with shaking. During this incubation antibody binds to the vincristine-BSA conjugate passively absorbed in the wells (Example 7). The wells of the plates were washed three times with 0.02 M TRIS, 0.9% NaCl, 0.5% Tween-80 and 0.001% thimerosal, pH 7.8 to remove any unbound antibody. […] After an incubation of 10 minutes at room temperature with shaking, during which the goat anti-mouse antibody-HRP enzyme conjugate binds to vincristine antibodies in the wells, the plates were again washed three times to remove unbound goat anti-mouse antibody-HRP enzyme conjugate. To develop a measurable color in the wells washing was followed by the addition of 100 μL of TMB (TMB Substrate, BioFx), the substrate for HRP, to develop color during a 10 minute incubation with shaking at room temperature. Following the incubation for color development, 50 μL of stop solution (1.5% sodium fluoride in diH2O) was added to each well to stop the color development and after 10 seconds of shaking the absorbance was determined at 650 nm (Molecular Devices Plate Reader). The amount of antibody in a well was proportional to the absorbance measured and was expressed as the dilution (titer) resulting in an absorbance of 1.5. Titers were determined by graphing antibody dilution of the antibody measured (x-axis) vs. absorbance 650 nm (y-axis) and interpolating the titer at an absorbance of 1.5. The titer which produced absorbance of 1.5 determined the concentration (dilution) of antibody used in the indirect competitive microtiter plate assay described in Example 9.
Indirect Competitive Microtiter Plate Immunoassay Procedure Determining IC50 and Cross-Reactivity for Antibodies to Vincristine
The ELISA method for determining IC50 values and cross-reactivity was performed with the microtiter plates that were sensitized with vincristine [5]-BSA conjugates as described in Example 7. […]

[9] = cited from earlier work
[10] = single one minute intravenous injection of 1-2 mg per m^2 body surface area

Row | Compound | Cross-reactivity of competitive immunoassay [1] | Cross-reactivity of competitive immunoassay [2] | Cross-reactivity of competitive immunoassay [3] | Cross-reactivity of competitive immunoassay [4] | Cross-reactivity of competitive immunoassay [5] | Cross-reactivity of competitive immunoassay [6] | Cross-reactivity of competitive immunoassay [7] | percent cross-reactivities relative to vincristine ([8]; measured with this pool of antibodies) | reactivity of the antibodies of this invention (in words) [8] | elimination half-life [9, 10] | time to distribution into tissue [9, 10] | difference in total dose exposure (inter-/intra-patient variability) ([9]; Crom et al., 1994) | interpatient variability in clearance ([9]; Gidding et al., 1999, Groninger et al., 2002)
1 | CC[C@]1(O)C[C@@H]2CN(CCc3c([nH]c4ccccc34)[C@@](C(=O)OC)(c3cc4c(cc3OC)N(C)[C@H]3[C@@](O)(C(=O)OC)[C@H](OC(C)=O)[C@]5(CC)C=CCN6CC[C@]43[C@@H]65)C2)C1 [Vinblastine, vinblastine] | <0.9% | <3.9% | <3.4% | <2% | <4.1% | <0.1% | 0.3% | less than 5% | substantially non-cross-reactive | – | – | – | –
2 | CC[C@]1(O)C[C@H]2CN(CCc3c([nH]c4ccccc34)[C@@](C(=O)OC)(c3cc4c(cc3OC)N(C=O)[C@H]3[C@@](O)(C(=O)OC)[C@H](OC(C)=O)[C@]5(CC)C=CCN6CC[C@]43[C@@H]65)C2)C1 [Vincristine sulfate] | – | – | – | – | – | – | – | – | – | 19 to 155 h | ≤ 10 min | – | –
3 | [H][C@@]12C[N@@](CCc3c([nH]c4ccccc34)[C@@](C(=O)OC)(c3cc4c(cc3OC)N(C=O)[C@]3([H])[C@]45CC[N@@]4CC=C[C@@](CC)([C@@H](OC(C)=O)[C@]3(O)C(=O)OC)[C@]45[H])C1)C[C@](O)(CC)C2 [Vincristine, vincristine] | 100% | 100% | 100% | 100% | 100% | 100% | 100% | – | substantially selectively reactive | – | – | up to 40 fold | up to 25 fold
4 | CCC1=C[C@@H]2CN(C1)Cc1c([nH]c3ccccc13)[C@@](C(=O)OC)(c1cc3c(cc1OC)N(C)[C@H]1[C@@](O)(C(=O)OC)[C@H](OC(C)=O)[C@]4(CC)C=CCN5CC[C@]31[C@@H]54)C2 [Vinorelbine, vinorelbine] | – | – | – | – | – | <0.1% | 0.7% | – | substantially non-cross-reactive | – | – | – | –
5 | vindesine | – | – | – | – | – | <0.1% | <0.1% | – | substantially non-cross-reactive | – | – | – | –

Source: patent US20120302740A1, “VINCRISTINE IMMUNOASSAY” (SALADAX BIOMEDICAL INC., priority 2010, published 2012)
